10 molecules from ChEMBL document CHEMBL5236659, “Design, synthesis and antitumor activity of novel thiophene- triazine derivatives bearing arylurea unit as potent PI3K/mTOR inhibitorss” (Bioorg Med Chem, 2023) can be followed below.

Data set [1] in a line: Antiproliferative activity against human U-87 MG cells assessed as inhibition of cell growth incubated for 72 hrs by MTT assay. It counts as functional, cell-based, U-87MG ATCC. On the technique in general: Formazan colour is commonly taken as a measure of viable cells.
The test system of data set [2] is A549. As to the kind of experiment: Antiproliferative activity against human A549 cells assessed as inhibition of cell growth incubated for 72 hrs by MTT assay. It counts as functional, cell-based. The conditions noted are these: A549, 72 h.
Data set [3] has as its target T1, Phosphatidylinositol 4,5-bisphosphate 3-kinase catalytic subunit alpha isoform (Homo sapiens, UniProt P42336). As to the kind of experiment: Inhibition of PI3Kalpha (unknown origin) at 1 uM by kinase-glo luminescent assay relative to control. For orientation: Kinase-Glo measures the ATP left after a reaction by luminescence.
Data set [4] has as its system MCF7. As to the kind of experiment: Antiproliferative activity against human MCF7 cells assessed as inhibition of cell growth incubated for 72 hrs by MTT assay. It counts as functional, cell-based. The settings on record: MCF7, 72 h.
Data set [5] is described as follows: Selectivity ratio of IC50 for antiproliferative activity against human A549 cells to IC50 for antiproliferative activity against human NCI-H1975 cells overexpressing EGFR L858R/T790M mutant. It counts as functional.
Data set [6] addresses T2, Serine/threonine-protein kinase mTOR (Homo sapiens, UniProt P42345). As to the kind of experiment: Inhibition of mTOR (unknown origin) by kinase-glo luminescent assay.
Data set [7] relates to HeLa. As to the kind of experiment: Antiproliferative activity against paclitaxel-resistant human HeLa cells assessed as inhibition of cell growth incubated for 72 hrs by MTT assay. It counts as functional, cell-based.
Data set [8] has as its system NCI-H1975. In words: Antiproliferative activity against human NCI-H1975 cells overexpressing EGFR L858R/T790M mutant assessed as inhibition of cell growth incubated for 72 hrs by MTT assay. It counts as functional, cell-based. The settings on record: NCI-H1975, 72 h.
The test system of data set [9] is NCI-H460. In words: Antiproliferative activity against human NCI-H460 cells assessed as inhibition of cell growth incubated for 72 hrs by MTT assay. It counts as functional, cell-based. The settings on record: NCI-H460, 72 h.
The species entered for data set [10] is Homo sapiens. As to the kind of experiment: Selectivity index, ratio of IC50 for inhibition of PI3Kalpha (unknown origin) to IC50 for inhibition of mTOR (unknown origin) by kinase glo luminescent assay.
Data set [11] can be described thus: Antiproliferative activity against human OVCAR-2 cells assessed as inhibition of cell growth incubated for 72 hrs by MTT assay. It counts as functional, cell-based. The conditions noted are these: OVCAR-2, 72 h.
Data set [12] relates to HeLa. As to the kind of experiment: Antiproliferative activity against human HeLa cells assessed as inhibition of cell growth incubated for 72 hrs by MTT assay. It counts as functional, cell-based.
Data set [13] in a line: Selectivity ratio of IC50 for antiproliferative activity against human MCF7 cells to IC50 for antiproliferative activity against human U-87 MG cells. It counts as functional.
Data set [14] deals with T2, Serine/threonine-protein kinase mTOR. As to the kind of experiment: Inhibition of mTOR (unknown origin) at 1 uM by kinase-glo luminescent assay relative to control.
The nature of data set [15]: Selectivity ratio of IC50 for antiproliferative activity against human HeLa cells to IC50 for antiproliferative activity against paclitaxel-resistant human HeLa cells. It counts as functional.
For data set [16], the target named is T1, Phosphatidylinositol 4,5-bisphosphate 3-kinase catalytic subunit alpha isoform. In words: Inhibition of PI3Kalpha (unknown origin) by kinase-glo luminescent assay.
Data set [17] has as its target Vascular endothelial growth factor receptor 2 (Homo sapiens) (UniProt P35968). As to the kind of experiment: Inhibition of KDR (unknown origin) at 1 uM by kinase-glo luminescent assay relative to control.
The target of data set [18] is Epidermal growth factor receptor (Homo sapiens) (UniProt P00533). In words: Inhibition of EGFR (unknown origin) at 1 uM by kinase-glo luminescent assay relative to control.
Data set [19] has as its target RAC-alpha serine/threonine-protein kinase (Homo sapiens) (UniProt P31749). As to the kind of experiment: Inhibition of AKT1 (unknown origin) at 1 uM by kinase-glo luminescent assay relative to control.
Data set [20] deals with NCI-H2228. In words: Antiproliferative activity against human NCI-H2228 cells assessed as inhibition of cell growth incubated for 72 hrs by MTT assay. It counts as functional, cell-based.
Data set [21] can be described thus: Cytotoxicity against human L02 cells assessed as inhibition of cell growth incubated for 72 hrs by MTT assay. It counts as toxicity, cell-based.
Data set [22] can be described thus: Hemolytic activity in 2% sheep RBC assessed as hemolysis at 16 to 256 ug/ml incubated for 3 hrs. It counts as toxicity, cell-based, Ovis aries. The conditions noted are these: erythrocyte, dose 16-256 µg/ml.
Data set [23] concerns the target T1, Phosphatidylinositol 4,5-bisphosphate 3-kinase catalytic subunit alpha isoform. In words: Inhibition of PI3Kalpha in human MCF7 cells assessed as decrease in PI3Kalpha gene expression incubated for 24 hrs by fluorescence quantitative PCR assay. It counts as cell-based. The conditions noted are these: dose 0.8-1.6 µM.
The mark [24] stands for this setting: Homo sapiens, NCI-H2228, 72 h, read-out: IC50.

The structures appear in SMILES notation. Calls of active or inactive are those of the source. The rule behind the calls is not given here.

T1 sequence (P42336 whole entry, canonical isoform): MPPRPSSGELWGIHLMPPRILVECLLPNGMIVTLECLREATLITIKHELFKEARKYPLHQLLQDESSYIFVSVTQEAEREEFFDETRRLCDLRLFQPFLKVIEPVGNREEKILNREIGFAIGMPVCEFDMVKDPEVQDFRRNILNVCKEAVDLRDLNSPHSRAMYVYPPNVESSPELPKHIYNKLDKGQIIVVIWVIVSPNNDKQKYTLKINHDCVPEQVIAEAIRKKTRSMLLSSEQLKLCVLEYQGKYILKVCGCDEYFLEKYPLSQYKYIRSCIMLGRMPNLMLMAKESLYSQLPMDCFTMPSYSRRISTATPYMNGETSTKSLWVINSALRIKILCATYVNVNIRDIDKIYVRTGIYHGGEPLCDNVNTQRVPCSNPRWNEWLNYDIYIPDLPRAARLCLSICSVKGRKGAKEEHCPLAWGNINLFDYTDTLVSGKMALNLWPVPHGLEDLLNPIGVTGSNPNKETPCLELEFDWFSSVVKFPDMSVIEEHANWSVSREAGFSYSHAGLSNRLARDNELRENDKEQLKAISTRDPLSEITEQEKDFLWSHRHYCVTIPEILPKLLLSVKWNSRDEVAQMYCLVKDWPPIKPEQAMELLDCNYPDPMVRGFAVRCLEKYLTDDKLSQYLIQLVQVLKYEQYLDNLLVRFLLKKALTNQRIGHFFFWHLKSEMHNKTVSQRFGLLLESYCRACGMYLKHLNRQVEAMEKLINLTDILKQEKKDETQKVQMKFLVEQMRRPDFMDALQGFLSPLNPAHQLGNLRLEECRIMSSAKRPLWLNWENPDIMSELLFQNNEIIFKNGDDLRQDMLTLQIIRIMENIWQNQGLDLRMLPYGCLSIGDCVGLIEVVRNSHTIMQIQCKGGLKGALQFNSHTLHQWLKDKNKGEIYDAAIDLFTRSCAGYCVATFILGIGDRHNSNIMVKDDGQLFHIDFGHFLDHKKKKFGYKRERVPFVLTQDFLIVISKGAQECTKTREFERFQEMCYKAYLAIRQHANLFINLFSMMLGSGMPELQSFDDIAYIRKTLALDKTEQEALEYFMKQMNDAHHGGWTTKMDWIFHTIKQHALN
Chain of Epidermal growth factor receptor (Homo sapiens) (P00533 whole entry): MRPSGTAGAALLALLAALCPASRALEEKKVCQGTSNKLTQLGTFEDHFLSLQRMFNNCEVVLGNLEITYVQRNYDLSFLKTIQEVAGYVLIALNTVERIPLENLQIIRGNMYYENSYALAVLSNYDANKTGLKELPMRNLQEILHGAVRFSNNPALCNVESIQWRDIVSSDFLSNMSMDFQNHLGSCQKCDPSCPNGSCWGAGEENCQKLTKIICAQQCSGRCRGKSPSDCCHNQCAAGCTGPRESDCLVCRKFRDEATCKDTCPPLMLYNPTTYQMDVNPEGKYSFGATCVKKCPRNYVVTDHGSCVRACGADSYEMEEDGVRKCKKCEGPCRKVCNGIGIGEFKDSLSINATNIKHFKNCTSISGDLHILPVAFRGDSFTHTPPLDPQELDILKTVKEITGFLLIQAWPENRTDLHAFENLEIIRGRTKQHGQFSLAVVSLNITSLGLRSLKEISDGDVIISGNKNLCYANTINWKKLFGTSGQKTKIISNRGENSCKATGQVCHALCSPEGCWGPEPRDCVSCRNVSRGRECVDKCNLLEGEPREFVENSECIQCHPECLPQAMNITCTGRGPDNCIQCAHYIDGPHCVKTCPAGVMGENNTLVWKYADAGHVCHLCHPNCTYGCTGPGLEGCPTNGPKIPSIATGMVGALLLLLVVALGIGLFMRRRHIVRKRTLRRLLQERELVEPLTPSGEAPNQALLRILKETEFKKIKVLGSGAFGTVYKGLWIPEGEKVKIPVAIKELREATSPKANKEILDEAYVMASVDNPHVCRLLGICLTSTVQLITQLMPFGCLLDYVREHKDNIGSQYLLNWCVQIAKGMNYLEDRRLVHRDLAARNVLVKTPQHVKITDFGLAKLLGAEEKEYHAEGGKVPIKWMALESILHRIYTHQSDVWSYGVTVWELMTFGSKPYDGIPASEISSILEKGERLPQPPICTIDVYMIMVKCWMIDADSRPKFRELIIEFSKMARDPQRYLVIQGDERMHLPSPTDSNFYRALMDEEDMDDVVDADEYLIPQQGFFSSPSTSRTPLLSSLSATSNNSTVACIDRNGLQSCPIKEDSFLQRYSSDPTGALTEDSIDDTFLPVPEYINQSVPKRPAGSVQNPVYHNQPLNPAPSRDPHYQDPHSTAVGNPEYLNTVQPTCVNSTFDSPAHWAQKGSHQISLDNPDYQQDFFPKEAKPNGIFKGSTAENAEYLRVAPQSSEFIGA
Chain of Vascular endothelial growth factor receptor 2 (Homo sapiens) (P35968 whole entry): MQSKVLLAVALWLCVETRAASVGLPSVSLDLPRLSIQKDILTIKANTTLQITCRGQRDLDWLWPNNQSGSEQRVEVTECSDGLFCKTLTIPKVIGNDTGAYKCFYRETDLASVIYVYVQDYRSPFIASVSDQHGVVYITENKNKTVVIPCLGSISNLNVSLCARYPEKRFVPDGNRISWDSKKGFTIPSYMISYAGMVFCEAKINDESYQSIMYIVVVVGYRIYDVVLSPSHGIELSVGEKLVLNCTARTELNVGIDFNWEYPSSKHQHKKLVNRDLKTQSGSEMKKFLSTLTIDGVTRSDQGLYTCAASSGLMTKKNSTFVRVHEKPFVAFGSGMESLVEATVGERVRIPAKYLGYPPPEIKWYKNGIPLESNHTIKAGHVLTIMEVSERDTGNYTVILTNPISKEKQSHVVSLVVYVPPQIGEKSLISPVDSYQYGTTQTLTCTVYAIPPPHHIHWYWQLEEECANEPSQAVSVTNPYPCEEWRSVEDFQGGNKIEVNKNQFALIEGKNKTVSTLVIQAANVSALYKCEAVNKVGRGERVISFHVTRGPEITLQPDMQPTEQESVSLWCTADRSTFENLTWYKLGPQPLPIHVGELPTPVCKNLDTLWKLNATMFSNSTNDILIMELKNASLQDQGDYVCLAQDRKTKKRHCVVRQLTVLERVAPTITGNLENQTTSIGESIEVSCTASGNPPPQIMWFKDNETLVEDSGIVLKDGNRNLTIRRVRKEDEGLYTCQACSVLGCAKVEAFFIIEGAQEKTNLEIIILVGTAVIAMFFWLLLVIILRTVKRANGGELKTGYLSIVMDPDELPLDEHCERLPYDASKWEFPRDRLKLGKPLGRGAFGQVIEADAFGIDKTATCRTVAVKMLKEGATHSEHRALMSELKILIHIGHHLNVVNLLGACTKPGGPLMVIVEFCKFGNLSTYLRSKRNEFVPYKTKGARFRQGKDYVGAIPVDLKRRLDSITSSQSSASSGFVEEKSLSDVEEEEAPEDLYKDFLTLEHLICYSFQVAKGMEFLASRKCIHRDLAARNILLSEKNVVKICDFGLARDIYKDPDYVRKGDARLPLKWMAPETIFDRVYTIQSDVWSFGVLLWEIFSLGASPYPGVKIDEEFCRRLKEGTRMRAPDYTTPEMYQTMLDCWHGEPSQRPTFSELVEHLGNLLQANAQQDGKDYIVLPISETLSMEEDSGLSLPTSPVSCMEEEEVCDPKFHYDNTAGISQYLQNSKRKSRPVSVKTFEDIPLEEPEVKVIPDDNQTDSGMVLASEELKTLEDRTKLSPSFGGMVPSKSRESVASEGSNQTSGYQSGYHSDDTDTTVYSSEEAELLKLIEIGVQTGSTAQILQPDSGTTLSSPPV
Chain of RAC-alpha serine/threonine-protein kinase (Homo sapiens) (P31749 whole entry): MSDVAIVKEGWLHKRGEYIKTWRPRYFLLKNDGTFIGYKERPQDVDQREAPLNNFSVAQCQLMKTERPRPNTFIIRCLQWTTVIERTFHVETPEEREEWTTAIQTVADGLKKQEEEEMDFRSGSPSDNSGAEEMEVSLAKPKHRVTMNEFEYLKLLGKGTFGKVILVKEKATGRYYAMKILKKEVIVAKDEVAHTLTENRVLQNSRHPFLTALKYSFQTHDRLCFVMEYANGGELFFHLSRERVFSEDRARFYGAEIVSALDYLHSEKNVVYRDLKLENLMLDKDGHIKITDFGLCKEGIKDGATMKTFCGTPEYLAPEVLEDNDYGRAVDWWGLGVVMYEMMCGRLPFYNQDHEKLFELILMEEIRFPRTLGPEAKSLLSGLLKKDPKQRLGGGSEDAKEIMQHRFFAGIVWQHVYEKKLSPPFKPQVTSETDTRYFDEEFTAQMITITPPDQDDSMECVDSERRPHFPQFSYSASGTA

For orientation: IC50 means the concentration needed to halve the response being measured. By inhibition is commonly meant the drop in the measured response relative to a control, in per cent. Regarding `Cn1nccc1NC(=O)Nc1ccc(-c2nc(-c3ccc(CN4CCN(S(C)(=O)=O)CC4)s3)nc(N3CCOCC3)n2)cc1`, the IC50 in data set [1] worked out at 8.61 µM; in data set [2] it was 16.4 µM; in data set [4], 0.42 µM; in data set [6], 0.571 µM; in data set [7] it was 31.7 µM; in data set [8], 9.87 µM. Also, the IC50 is 10.6 µM in data set [9], 15.9 µM in data set [11], 45.1 µM in data set [12] and 1.33 µM in data set [16]. Further, the inhibition is 47.5% in data set [3] and 72.7% in data set [14]. The “Ratio IC50” value in data set [5] stood at 1.67; in [10], 2.33; in data set [13] it was 0.048; in [15], 1.43.

For the molecule `CS(=O)(=O)N1CCN(Cc2ccc(-c3nc(-c4ccc(NC(=O)Nc5nc[nH]n5)cc4)nc(N4CCOCC4)n3)s2)CC1`, the IC50 in data set [1] is 18.2 µM; in [2], 13.2 µM; in data set [4], 13 µM; in data set [7], 21.4 µM; in data set [8] it was 22.5 µM; in [9], over 100 µM. Also, the IC50 was 12.3 µM in data set [11] and 25.5 µM in data set [12]. Moreover, the inhibition in data set [3] was determined as 94.5%; in data set [14], 97.3%. Also, the “Ratio IC50” value in data set [5] stood at 0.59; in [13], 0.71; in [15] it was 1.19.

Consider `CS(=O)(=O)N1CCN(Cc2ccc(-c3nc(-c4ccc(NC(=O)NC5CN6CCC5CC6)cc4)nc(N4CCOCC4)n3)s2)CC1` (configuration not stated), for which the IC50 in data set [1] came to 21.5 µM; in data set [2] it was 2.38 µM; in data set [4] it was 7.46 µM; in data set [6], 7.96 µM; in data set [7] it was 17.2 µM; in data set [8] it was 40.5 µM. The half-inhibitory concentration (IC50) in data set [9] was over 100 µM; in data set [11] it was 22.9 µM; in data set [12], 17.1 µM; in [16], 8.97 µM. The inhibition came to 9% in data set [3] and 17.1% in [14]. Moreover, the “Ratio IC50” value in data set [5] worked out at 0.059; in [10], 1.13; in data set [13], 0.35; in data set [15], 0.99.

Consider `CS(=O)(=O)N1CCN(Cc2cc3nc(-c4cccc5[nH]ncc45)nc(N4CCOCC4)c3s2)CC1` [PICTILISIB], for which the IC50 amounted to 3.13 µM in data set [1]; 1.03 µM in data set [2]; 1.2 µM in [4]; 2.97 µM in data set [7]; 2.42 µM in data set [8]; 2.68 µM in [9]. For the same molecule, the half-inhibitory concentration (IC50) turned out to be 1.25 µM in data set [11], 3.15 µM in data set [12] and 1.07 µM in data set [20] (setting [24]). In addition, the inhibition result in data set [17], in [18] and in [19] was “inactive” in each case. Also, the inhibition in data set [3] is 97.8%; in [14], 90.6%.

Take `CS(=O)(=O)N1CCN(Cc2ccc(-c3nc(-c4ccc(NC(=O)Nc5cnccn5)cc4)nc(N4CCOCC4)n3)s2)CC1`: the IC50 in data set [1] was over 100 µM; in [2], 7.08 µM; in [4], 5.87 µM; in [6], 0.16 µM; in data set [7], 0.021 µM; in data set [8] it was 8.22 µM. Further, the IC50 in data set [9] stood at 25.4 µM; in [11], 15.8 µM; in [12], 18.2 µM; in data set [20] (setting [24]) it was 10.3 µM; in data set [16] it was 2.36 µM. Besides, the inhibition in data set [3] was 20.6%; in [14], 76.6%. Moreover, the “Ratio IC50” value in data set [5] worked out at 0.86; in data set [10], 14.7; in [15], 912.5.

With `CS(=O)(=O)N1CCN(Cc2ccc(-c3nc(-c4ccc(NC(=O)Nc5ncc[nH]5)cc4)nc(N4CCOCC4)n3)s2)CC1`, the half-maximal inhibitory concentration (IC50) in data set [1] was over 100 µM; in data set [2] it was 48.9 µM; in data set [4], 20.1 µM; in [7], 38.5 µM; in data set [8] it was over 100 µM; in [9], 14.3 µM. Moreover, the IC50 in data set [11] is 22.6 µM; in data set [12], 7.58 µM; in data set [20] (nci-h2228), “Not Active”; in data set [16], 1.79 µM. This molecule showed an inhibition in data set [3] of 47.7%.

For the molecule `CS(=O)(=O)N1CCN(Cc2ccc(-c3nc(-c4ccc(NC(=O)Nc5ccn[nH]5)cc4)nc(N4CCOCC4)n3)s2)CC1`, the IC50 in data set [1] is 8.96 µM; in data set [2] it was 3.62 µM; in data set [4] it was 1.8 µM; in data set [7], 0.23 µM; in [8] it was 5.27 µM; in [9], 11.5 µM. In addition, the half-inhibitory concentration (IC50) was 2.12 µM in data set [11] and 4.3 µM in data set [12]. Also, the inhibition in data set [17] worked out at 1.77%; in data set [18] it was 10.5%; in data set [3] it was 87.2%; in data set [19] it was 4.03%; in [14], 91.1%. The “Ratio IC50” value came to 0.69 in [5], 0.2 in data set [13] and 18.7 in [15]. The IC50 at 72 h in [21] was over 100 µM.

For the molecule `CS(=O)(=O)N1CCN(Cc2ccc(-c3nc(-c4ccc(NC(=O)Nc5ccncc5)cc4)nc(N4CCOCC4)n3)s2)CC1`, the IC50 in data set [1] stood at 1.25 µM; in [2], 0.47 µM; in data set [4], 0.3 µM; in data set [7] it was 0.37 µM; in data set [8], 0.008 µM; in data set [9], 2.31 µM. For the same molecule, the IC50 is 0.25 µM in data set [11], 1.04 µM in data set [12], 0.22 µM in [20] (setting [24]) and 0.177 µM in data set [16]. For the same molecule, in [22], the Activity result is on record as “Non-Toxic”. Moreover, the inhibition in data set [17] is 1.74%; in data set [18], 6.24%; in data set [3] it was 88.2%; in [23] it was “Dose-Dependent Effect”; in data set [19], 18.2%. Further, in data set [21], the half-maximal inhibitory concentration (IC50) at 72 h was over 100 µM.

`Cn1ccc(NC(=O)Nc2ccc(-c3nc(-c4ccc(CN5CCN(S(C)(=O)=O)CC5)s4)nc(N4CCOCC4)n3)cc2)n1`: the IC50 in data set [1] amounted to 0.24 µM; in data set [2], 0.11 µM; in data set [4] it was 1.05 µM; in data set [7] it was 2.07 µM; in data set [8] it was 0.16 µM; in data set [9], 3.21 µM. In addition, the IC50 in data set [11] worked out at 1.06 µM; in [12], 2.36 µM; in data set [16] it was 0.299 µM. Moreover, the inhibition result in data set [17] and in data set [18] was “inactive” in each case. The inhibition is 80.1% in [3] and 1.02% in data set [19]. In [21], the IC50 at 72 h is over 100 µM.

For `CS(=O)(=O)N1CCN(Cc2ccc(-c3nc(-c4ccc(NC(=O)Nc5ccc6[nH]ncc6c5)cc4)nc(N4CCOCC4)n3)s2)CC1`, the IC50 in [1] worked out at 15.1 µM; in data set [2], 14.2 µM; in data set [4], 0.11 µM; in data set [7] it was 10.5 µM; in data set [8], 31.2 µM; in data set [9], 20.5 µM. Besides, the results for the IC50 in data set [11] and in data set [12] were 12.6 µM and 2.14 µM, respectively. Moreover, the inhibition worked out at 93% in [3] and 96.4% in [14]. Besides, the “Ratio IC50” value is 0.46 in data set [5], 0.007 in data set [13] and 0.2 in [15].
